According to patent publication US20240264164A1, “DETERGENTS AND METHODS” (OXFORD UNIVERSITY INNOVATION LIMITED, priority 2021, published 2024):

What was measured:
membrane protein AqpZ [1] = biological target: T1, membrane protein AqpZ (Escherichia coli, UniProt P60844); assay: Stability of AqpZ in detergent solution after extraction from native membrane and IMAC; set-up: made in house; conditions: extraction with 1% w/v detergent solution, IMAC purification
Protocol: Different solutions of the membrane protein AqpZ were prepared by extracting the protein from its native membrane using a 1% w/v detergent solution and then purifying the samples using IMAC. The following solutions were prepared: one containing the hybrid detergent, one containing DDM, one containing C8E4 and one containing a mixture of C8E4 and DDM. AgpZ precipitated from the solutions containing C8E4, even when DDM was also present.

membrane protein AqpZ [2] = biological target: T1, membrane protein AqpZ; assay: nano-electrospray ionization mass spectrometry of AqpZ in detergent (FIG. 9); set-up: made in house; host or cells: bacterial culture (LB broth, ampicillin); conditions: nESI, Q Exactive
Protocol: The samples were analysed using a Q-Exactive mass spectrometer using the following instrumental parameters: • Injection flatapole: 7.9 V • Inter flatapole lens: 6.9 V • Bent flatapole: 5.9 V • Transfer multipole: 4 V • Capillary voltage: 1.2 kV • Source temperature: 100° C. • Voltage applied to the C-trap entrance lens: 5.8 V • In-source trapping voltage: 0-200 V • Higher-energy collisional dissociation (HCD) cell voltage: 100-200 V • HCD cell pressure: 9×10^−10 mBar • Noise level parameter: 3 • Microscans: 10 • Resolution: 17,500
The suitability of the hybrid detergent in nano-electrospray ionization was investigated using a Q Exactive mass spectrometer. The results are shown in FIG. 9, along with results obtained using DDM and C8E4.

T1 sequence (P60844 whole entry): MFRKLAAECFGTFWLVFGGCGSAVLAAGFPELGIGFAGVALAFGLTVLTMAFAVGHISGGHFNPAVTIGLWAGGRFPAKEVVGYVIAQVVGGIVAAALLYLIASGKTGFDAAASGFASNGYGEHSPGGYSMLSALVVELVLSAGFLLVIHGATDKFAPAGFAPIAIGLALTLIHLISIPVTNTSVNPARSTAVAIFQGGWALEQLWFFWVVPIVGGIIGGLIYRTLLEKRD

Row | Compound | stability of AqpZ in detergent solution (membrane protein AqpZ [1]) | lipid-bound states of AqpZ detected (membrane protein AqpZ [2]) | level of delipidation of AqpZ (membrane protein AqpZ [2])
1 | CCCCCCCCCCCCOCC(COCCOCCOCCOCCO)Oc1ccc(OCCOC2OC(CO)C(C3OC(CO)C(O)C(O)C3O)C(O)C2O)cc1 (stereo not drawn) | stable | detected | 
2 | CCCCCCCCOCCOCCOCCOCCO [C8E4, tetraethylene glycol monooctyl ether] | precipitated |  | fully delipidating
3 | CCCCCCCCCCCCO[C@@H]1O[C@H](CO)[C@@H](O[C@H]2O[C@H](CO)[C@@H](O)[C@H](O)[C@H]2O)[C@H](O)[C@H]1O [DDM, n-dodecyl-β-D-maltoside] |  | detected | relatively low levels of delipidation
